Structures can show the parent of a compound that is named as a salt.
Columns and labels:
[1] = Long-term stability test; assay type: physicochemical; details: 25±2° C., relative humidity 60%±5%; for Content (%) / Moisture (%) / Related substances (%): packaged; for Acidity: pH value of 10 mg in 10 mL water
Experimental: Detection instrument: Karl Fischer moisture titrator/915 KF Ti-Touch
Test method: After the instrument was balanced, a proper amount (about 200 mg) of the test sample was taken, precisely weighed, and added to a titration cup, absolute methanol was used as the solvent, and a moisture titration solution was used for the direct measurement, and an average value was obtained by measuring each test sample twice.
Detection Instrument: High performance liquid chromatograph/Waters e2695-2489
Octadecyl silane bonded to silica gel was used as a filler (the applicable range of the pH value should be greater than 10.0), 20 mmol/L of disodium hydrogen phosphate solution (the pH value was adjusted to 10.0 with sodium hydroxide)-acetonitrile (65:35) was used as the mobile phase; the detection wavelength was 287 nm, and the column temperature was 30° C. The number of theoretical plates should be not less than 3000.
Determination method: About 20 mg of the sample was taken and precisely weighed, put in a 100 mL volumetric flask. A diluent (50% methanol/water) was added to dissolve and dilute the sample to the scale. The content was shaken uniformly, and 10 μL was precisely metered and injected into a liquid chromatograph, and the chromatogram was recorded; another appropriate amount of the reference substance was taken, and the same method was used for determination. The result was obtained by calculating the peak area according to the external standard method.
Detection instrument: Mettler Toledo S210-K pH meter
Test method: Based on the operation according to the pH value measurement method, 10 mg of a sample was precisely weighed, then 10 mL of freshly boiled and cooled purified water was added to dissolve the sample, and the mixture was shaken uniformly, and then the pH value was measured.
12. Measurement of Related Substances
Detection instrument: High performance liquid chromatograph/Waters e2695-2489
Chromatographic Conditions:
Octadecylsilane bonded to silica gel was used as a filler (Model: Waters Xbridge C18 chromatographic column, with a length of 250 mm, an inner diameter of 4.6 mm, and a filler particle size of 5 μm), the detection wavelength was 250 nm, the column temperature was 35° C., and the flow rate was 1.0 mL/minute, the mobile phase A was 0.02 mol/L of a disodium hydrogen phosphate solution (the pH value was adjusted to 10.0 with a sodium hydroxide solution), the mobile phase B was acetonitrile, and the diluent was methanol, and the temperature of the sample plate was 4° C.
Test method: The system applicability test was performed according to the requirements, and the test sample solution, the control solution, and the sensitivity solution were prepared. Each 10 μL of the control solution and the test sample solution were precisely metered and injected into a liquid chromatograph, and the chromatogram was recorded. The result was obtained by calculating the peak area according to the self-dilution control method with the correction factor.
An appropriate amount of the salt sample obtained from Example 1 was taken, a medicinal low-density polyethylene sack was used as the internal packaging, and a polyester/aluminum/polyethylene composite bag for medicine packaging was used as the external packaging. Samples were taken respectively at the end of the 3rd, 6th, 9th, 12th, and 18th months after being stored at a temperature of 25±2° C. under a relative humidity of 60%±5%. The appearances were compared, followed by measuring other investigation indexes. The results were compared with those measured in the 0th month.

[2] = tested on: human non-small cell lung cancer HCC827; test: In-vivo anti-tumor test, non-small cell lung cancer model; set-up: species or system nude mice; details: once daily oral administration for 30 days
Experimental: The salt sample obtained from Example 1 was tested (specifically for FLT3-ITD acute myeloid leukemia, non-small cell lung cancer with EGFR activating mutations, or Ph-positive chronic myeloid leukemia) according to the in-vivo anti-tumor test described in the biological assessment of the patent application WO2011/147066.

[3] = target: EGFR(h) (Homo sapiens, UniProt P00533); test: Kinase inhibitory activity test (per WO2011/147066); assay type: biochemical
Chain of EGFR(h) (P00533 25-1210): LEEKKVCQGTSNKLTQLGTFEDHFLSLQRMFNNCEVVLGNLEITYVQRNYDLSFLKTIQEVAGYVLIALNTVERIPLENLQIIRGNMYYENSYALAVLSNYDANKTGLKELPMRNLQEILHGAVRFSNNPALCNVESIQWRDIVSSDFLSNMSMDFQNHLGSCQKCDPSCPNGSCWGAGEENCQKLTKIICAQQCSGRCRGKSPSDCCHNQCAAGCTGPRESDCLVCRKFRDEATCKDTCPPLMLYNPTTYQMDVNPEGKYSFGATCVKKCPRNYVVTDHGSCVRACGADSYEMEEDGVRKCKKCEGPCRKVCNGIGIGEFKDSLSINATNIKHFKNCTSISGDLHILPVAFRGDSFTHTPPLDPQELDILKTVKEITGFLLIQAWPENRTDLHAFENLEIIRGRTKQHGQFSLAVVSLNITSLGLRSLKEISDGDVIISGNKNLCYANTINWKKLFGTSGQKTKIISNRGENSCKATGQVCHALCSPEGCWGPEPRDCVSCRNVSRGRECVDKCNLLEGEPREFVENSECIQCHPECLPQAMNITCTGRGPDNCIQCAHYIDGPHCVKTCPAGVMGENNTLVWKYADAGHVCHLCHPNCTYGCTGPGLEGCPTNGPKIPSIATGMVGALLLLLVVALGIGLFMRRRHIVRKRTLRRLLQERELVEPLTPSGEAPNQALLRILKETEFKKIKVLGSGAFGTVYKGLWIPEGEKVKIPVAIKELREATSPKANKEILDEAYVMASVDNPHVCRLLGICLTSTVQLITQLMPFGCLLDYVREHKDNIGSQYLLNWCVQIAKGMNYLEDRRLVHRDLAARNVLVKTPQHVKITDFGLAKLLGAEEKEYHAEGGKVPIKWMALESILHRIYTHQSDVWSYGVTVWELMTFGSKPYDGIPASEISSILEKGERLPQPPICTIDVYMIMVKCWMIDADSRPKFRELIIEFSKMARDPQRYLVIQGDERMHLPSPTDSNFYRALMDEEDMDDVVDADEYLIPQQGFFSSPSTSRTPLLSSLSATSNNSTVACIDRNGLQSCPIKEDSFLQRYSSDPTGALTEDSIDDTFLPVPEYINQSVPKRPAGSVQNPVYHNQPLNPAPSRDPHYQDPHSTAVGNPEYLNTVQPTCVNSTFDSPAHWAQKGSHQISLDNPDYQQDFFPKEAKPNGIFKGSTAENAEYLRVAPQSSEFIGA

[4] = target: c-KIT (Homo sapiens, UniProt P10721); test: as above; assay type: biochemical; details: result in words
Experimental: (§1) The salt sample obtained from Example 1 was tested according to the kinase inhibitory activity test described in the biological assessment of the patent application WO2011/147066.

[5] = target: c-SRC(h) (Homo sapiens, UniProt P12931); test: as above; assay type: biochemical
Chain of c-SRC(h) (P12931 whole entry): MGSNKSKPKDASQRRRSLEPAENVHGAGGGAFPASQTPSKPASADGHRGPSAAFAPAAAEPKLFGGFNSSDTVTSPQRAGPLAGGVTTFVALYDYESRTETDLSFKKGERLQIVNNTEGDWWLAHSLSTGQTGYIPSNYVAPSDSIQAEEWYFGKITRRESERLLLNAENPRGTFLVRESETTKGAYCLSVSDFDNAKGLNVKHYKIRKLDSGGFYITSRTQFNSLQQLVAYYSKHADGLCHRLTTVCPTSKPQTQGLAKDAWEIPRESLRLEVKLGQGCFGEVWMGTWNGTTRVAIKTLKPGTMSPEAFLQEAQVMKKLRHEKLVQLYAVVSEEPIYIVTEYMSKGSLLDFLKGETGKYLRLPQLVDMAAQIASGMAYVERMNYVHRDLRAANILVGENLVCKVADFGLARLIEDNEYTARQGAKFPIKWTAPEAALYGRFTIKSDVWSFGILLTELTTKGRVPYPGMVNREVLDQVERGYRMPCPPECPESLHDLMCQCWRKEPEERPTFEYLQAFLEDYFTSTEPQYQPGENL
Experimental: as §1

[6] = target: Hck(h) (Homo sapiens, UniProt P08631); test: as above; assay type: biochemical
Chain of Hck(h) (P08631 whole entry): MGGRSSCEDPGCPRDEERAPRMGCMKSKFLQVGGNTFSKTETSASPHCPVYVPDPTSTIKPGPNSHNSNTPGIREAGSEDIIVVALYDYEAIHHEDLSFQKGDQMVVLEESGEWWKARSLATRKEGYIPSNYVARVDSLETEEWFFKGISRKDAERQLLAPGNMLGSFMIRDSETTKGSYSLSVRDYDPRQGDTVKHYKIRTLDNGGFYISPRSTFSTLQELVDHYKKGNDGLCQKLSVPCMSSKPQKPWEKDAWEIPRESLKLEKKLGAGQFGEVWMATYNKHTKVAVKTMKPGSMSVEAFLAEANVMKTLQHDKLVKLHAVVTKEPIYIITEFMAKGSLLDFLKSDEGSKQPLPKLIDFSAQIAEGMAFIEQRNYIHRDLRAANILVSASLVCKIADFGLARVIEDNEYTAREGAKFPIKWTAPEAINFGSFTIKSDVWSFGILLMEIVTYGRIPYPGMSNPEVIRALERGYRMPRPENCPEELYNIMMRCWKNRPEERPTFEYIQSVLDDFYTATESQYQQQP
Experimental: as §1

[7] = target: Ret(h) (Homo sapiens, UniProt P07949); test: as above; assay type: biochemical
Experimental: as §1

[8] = target: FLT3-ITD(h) (Homo sapiens, UniProt P36888); test: as above; assay type: biochemical
Experimental: as §1

[9] = target: FLT3(h) (Homo sapiens, UniProt P36888); test: as above; assay type: biochemical
Experimental: as §1

[10] = target: Abl(h) (Homo sapiens, UniProt P00519); test: as above; assay type: biochemical
Chain of Abl(h) (P00519 whole entry): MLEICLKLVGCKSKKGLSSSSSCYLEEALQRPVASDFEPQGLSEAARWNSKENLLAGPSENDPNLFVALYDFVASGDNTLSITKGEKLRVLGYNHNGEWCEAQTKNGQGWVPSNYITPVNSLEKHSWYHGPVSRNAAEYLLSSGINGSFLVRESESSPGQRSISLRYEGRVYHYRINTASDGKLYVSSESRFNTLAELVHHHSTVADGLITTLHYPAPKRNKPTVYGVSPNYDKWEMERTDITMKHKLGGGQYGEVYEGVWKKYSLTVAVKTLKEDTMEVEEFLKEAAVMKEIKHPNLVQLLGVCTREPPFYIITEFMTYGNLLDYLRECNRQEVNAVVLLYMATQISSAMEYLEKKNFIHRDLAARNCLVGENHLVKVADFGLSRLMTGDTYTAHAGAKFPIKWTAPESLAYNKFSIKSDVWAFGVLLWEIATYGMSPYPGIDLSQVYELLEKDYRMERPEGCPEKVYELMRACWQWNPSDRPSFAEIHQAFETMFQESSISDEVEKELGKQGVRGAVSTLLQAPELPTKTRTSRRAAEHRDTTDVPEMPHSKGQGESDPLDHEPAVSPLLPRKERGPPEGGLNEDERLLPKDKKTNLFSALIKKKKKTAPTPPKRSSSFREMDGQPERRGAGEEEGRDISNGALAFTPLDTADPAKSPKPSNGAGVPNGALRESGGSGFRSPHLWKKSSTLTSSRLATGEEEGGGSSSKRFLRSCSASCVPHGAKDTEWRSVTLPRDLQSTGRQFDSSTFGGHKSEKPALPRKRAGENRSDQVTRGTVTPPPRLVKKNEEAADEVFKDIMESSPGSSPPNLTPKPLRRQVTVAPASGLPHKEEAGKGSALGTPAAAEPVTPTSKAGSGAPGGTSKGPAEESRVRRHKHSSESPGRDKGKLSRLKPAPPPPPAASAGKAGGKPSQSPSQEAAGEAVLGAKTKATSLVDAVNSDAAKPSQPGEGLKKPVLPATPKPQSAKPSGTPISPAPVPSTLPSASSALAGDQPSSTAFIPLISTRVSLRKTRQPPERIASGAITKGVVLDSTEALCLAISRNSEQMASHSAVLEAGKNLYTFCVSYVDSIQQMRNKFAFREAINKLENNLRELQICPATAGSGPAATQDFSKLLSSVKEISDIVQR
Experimental: as §1

[11] = target: Fyn(h) (Homo sapiens, UniProt P06241); test: as above; assay type: biochemical
Experimental: as §1

[12] = target: FGFRl(h) (Homo sapiens, UniProt P11362); test: as above; assay type: biochemical
Chain of FGFRl(h) (P11362 22-822): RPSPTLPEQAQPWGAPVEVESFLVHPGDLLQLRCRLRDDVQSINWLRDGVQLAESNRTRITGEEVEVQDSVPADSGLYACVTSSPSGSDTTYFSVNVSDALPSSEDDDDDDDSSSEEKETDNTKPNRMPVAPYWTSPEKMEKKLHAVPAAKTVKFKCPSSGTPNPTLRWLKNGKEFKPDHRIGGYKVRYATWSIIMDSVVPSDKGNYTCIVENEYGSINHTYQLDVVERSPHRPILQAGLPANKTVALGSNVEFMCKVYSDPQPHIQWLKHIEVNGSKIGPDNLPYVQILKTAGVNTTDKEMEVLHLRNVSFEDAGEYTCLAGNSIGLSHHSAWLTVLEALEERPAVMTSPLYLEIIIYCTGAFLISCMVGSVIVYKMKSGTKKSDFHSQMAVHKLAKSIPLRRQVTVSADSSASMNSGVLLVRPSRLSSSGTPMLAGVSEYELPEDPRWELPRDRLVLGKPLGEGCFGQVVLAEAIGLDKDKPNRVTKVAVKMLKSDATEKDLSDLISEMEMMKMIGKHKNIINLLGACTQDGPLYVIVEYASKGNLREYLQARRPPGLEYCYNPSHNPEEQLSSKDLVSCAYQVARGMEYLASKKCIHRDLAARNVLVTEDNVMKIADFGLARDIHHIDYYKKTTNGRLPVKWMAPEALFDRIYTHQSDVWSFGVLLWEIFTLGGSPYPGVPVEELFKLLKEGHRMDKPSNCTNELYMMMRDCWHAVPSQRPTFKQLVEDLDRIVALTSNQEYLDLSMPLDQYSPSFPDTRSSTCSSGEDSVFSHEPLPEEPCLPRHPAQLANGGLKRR
Experimental: as §1

[13] = target: VEGFR2 (Homo sapiens, UniProt P35968); test: as above; assay type: biochemical; details: VEGFR2, result in words
Experimental: as §1

[14] = target: Lck(h) (Homo sapiens, UniProt P06239); test: as above; assay type: biochemical
Experimental: as §1

[15] = target: Yes (Homo sapiens, UniProt P07947); test: as above; assay type: biochemical
Chain of Yes (P07947 whole entry): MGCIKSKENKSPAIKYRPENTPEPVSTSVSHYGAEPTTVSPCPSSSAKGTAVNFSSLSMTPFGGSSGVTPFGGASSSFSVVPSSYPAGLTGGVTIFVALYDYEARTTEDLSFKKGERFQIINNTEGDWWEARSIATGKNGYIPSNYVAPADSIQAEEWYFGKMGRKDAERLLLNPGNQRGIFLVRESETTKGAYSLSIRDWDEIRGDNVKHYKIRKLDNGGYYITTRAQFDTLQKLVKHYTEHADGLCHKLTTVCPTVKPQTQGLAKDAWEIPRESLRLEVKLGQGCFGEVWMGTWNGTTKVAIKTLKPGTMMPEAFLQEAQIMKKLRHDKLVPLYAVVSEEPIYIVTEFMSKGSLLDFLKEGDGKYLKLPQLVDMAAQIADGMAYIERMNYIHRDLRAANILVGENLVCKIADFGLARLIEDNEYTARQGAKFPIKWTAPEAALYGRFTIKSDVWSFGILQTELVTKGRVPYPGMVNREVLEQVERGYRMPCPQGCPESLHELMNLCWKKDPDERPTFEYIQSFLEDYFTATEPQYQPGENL
Experimental: as §1

[16] = target: MET (Homo sapiens, UniProt P08581); test: as above; assay type: biochemical; details: result in words
Experimental: as §1

CC(C)n1c(Nc2cccnc2)nc2cnc(Nc3ccc(N4CCN(C)CC4)cc3)nc21 [Example 1, arylaminopurine derivative.trihydrochloride.pentahydrate]
Content (%) ([1]; 0 Month): 100.9% | Moisture (%) ([1]; 0 Month): 13.9% | Related substances (%) ([1]; 0 Month): 0.33% | Content (%) ([1]; 3 Month): 100.4% | Moisture (%) ([1]; 3 Month): 13.9% | Related substances (%) ([1]; 3 Month): 0.34% | Content (%) ([1]; 6 Month): 100.8% | Moisture (%) ([1]; 6 Month): 14.3% | Related substances (%) ([1]; 6 Month): 0.34% | Content (%) ([1]; 9 Month): 101.7% | Moisture (%) ([1]; 9 Month): 14.3% | Related substances (%) ([1]; 9 Month): 0.31% | Content (%) ([1]; 12 Month): 99.6% | Moisture (%) ([1]; 12 Month): 13.9% | Related substances (%) ([1]; 12 Month): 0.34% | Content (%) ([1]; 18 Month): 100.2% | Moisture (%) ([1]; 18 Month): 14.2% | Related substances (%) ([1]; 18 Month): 0.26% | Acidity ([1]; 0 Month): 3.1 | Acidity ([1]; 3 Month): 3.3 | Acidity ([1]; 6 Month): 3.3 | Acidity ([1]; 9 Month): 3.3 | Acidity ([1]; 12 Month): 3.3 | Acidity ([1]; 18 Month): 3.3 | growth of human non-small cell lung cancer HCC827 ([2]; 7.5, 15 and 30 mg/kg, dose dependence): dose-dependently inhibit the growth | tumor size compared with the initial tumor ([2]; HCC827, 7.5 mg/kg): tumor shrinkage | tumor size compared with the initial tumor ([2]; HCC827, 15 mg/kg): tumor shrinkage | regression of the tumor ([2]; HCC827, 30 mg/kg): nearly complete regression of the tumor | tumor size compared with the initial tumor ([2]; HCC827, 30 mg/kg): tumor shrinkage | IC50 [3]: 42 nM | inhibition of kinase activity [4]: could inhibit the activities | IC50 [5]: 176 nM | IC50 [6]: 93 nM | IC50 [7]: 10 nM | IC50 [8]: 3 to 10 nM | IC50 [9]: 26 nM | IC50 [10]: 25 nM | IC50 [11]: 34 nM | IC50 [12]: 247 nM | inhibition of kinase activity [13]: could inhibit the activities | IC50 [14]: 37 nM | IC50 [15]: 4 nM | inhibition of kinase activity [16]: could inhibit the activities

Reference: US20230144619A1, “SALT OF ARYLAMINOPURINE DERIVATIVE, PREPARATION METHOD THEREFOR AND USE THEREOF” (CSPC Zhongqi Pharmaceutical Technology (Shijiazhuang) Co., …, priority 2020, published 2023)
